This is an account of results in patent US9273003B2, “Methods of treating lymphoma and rheumatoid arthritis with cyclopentyl (2S)-cyclohexyl[({6-[3-(hydroxyamino)-3-oxopropyl]pyridin-3-yl}methyl)amino]acetate” (GlaxoSmithKline Intellectual Property Development Limited, priority 2006, dated 2016).

Some results are limits rather than exact numbers.

The subject of one test is HeLa cells. As to the kind of experiment: HeLa cell inhibition assay (sulphorhodamine B cell viability). It counts as cell-based. As to conditions: Homo sapiens, IC50 allocated to ranges. As to the method:
HeLa cells growing in log phase were harvested and seeded at 1000 cells/well (200 μl final volume) into 96-well tissue culture plates. Following 24 h of cell growth cells were treated with compounds (final concentration of 20 μM). Plates were then re-incubated for a further 72 h before a sulphorhodamine B (SRB) cell viability assay was conducted according to the methodology described by Skehan et al, J. Natl. Canc. Inst., 1990, 82, 1107-1112.
Data were expressed as a percentage inhibition of the control, measured in the absence of inhibitor, as follows:— % inhibition=100−[(S^i/S^o)×100] where S^i is the signal in the presence of inhibitor and S^o is the signal in the presence of DMSO.
IC50 values were determined by non-linear regression analysis, after fitting the results of eight data points to the equation for sigmoidal dose response with variable slope (% activity against log concentration of Compound), using Graphpad Prism software.

The target in test [1] is histone deacetylase activity (HeLa nuclear extract). As to the kind of experiment: HDAC fluorescent activity assay (Fluor de Lys, Biomol). It is filed as biochemical. As to conditions: IC50 allocated to ranges, read-out: HDAC activity. The essentials:
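HeLa nuclear extract as HDAC source incubated with acetyl-lysine Fluor de Lys substrate ± inhibitor; developer then releases fluorophore from deacetylated substrate. Activity as % of vehicle control after no-enzyme background subtraction; IC50 from eight-point variable-slope sigmoidal fit.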

Another test has as its system HUT78 cells. As to the kind of experiment: HUT cell inhibition assay (WST-1 cell viability). It is filed as cell-based. As to conditions: Homo sapiens; HUT78 cells; IC50 allocated to ranges; read-out: HUT activity. The gist of the method: (§1)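 Log-phase cells seeded at 1000-2000/well, grown 24 h, then exposed to compound for 72-96 h before WST-1 viability readout. Eight concentrations (top 10 μM final, 3-fold steps), 6 replicates; % inhibition versus DMSO, IC50 by sigmoidal variable-slope fit.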
In general terms: Tetrazolium dyes change colour on reduction, which living cells bring about.

Another test concerns U937 cells. As to the kind of experiment: U937 cell inhibition assay (WST-1 cell viability). It is filed as cell-based. Conditions: Homo sapiens, U-937; U937 cells; IC50 allocated to ranges; read-out: U937 activity. The essentials:
as §1

For `CC(C)(C)OC[C@@H](NCc1ccc(/C=C/C(=O)NO)cc1)C(=O)OC1CCCC1` [Example 20, Cyclopentyl O-tert-butyl-N-{4-[(1E)-3-(hydroxyamino)-3-oxoprop-1-en-1-yl]benzyl}-D-serinate], the IC50 in the test with HeLa cells is above 3300 nM; in test [1], 101 to 1000 nM; with HUT78 cells, 331 to 3300 nM; with U937 cells it was below 330 nM.

On to `CCOC(=O)[C@@H](NCc1ccc(/C=C/C(=O)NO)cc1)C1CCCCC1` [Example 21, Ethyl (2S)-cyclohexyl({4-[(1E)-3-(hydroxyamino)-3-oxoprop-1-en-1-yl]benzyl}amino)acetate], for which the IC50 with HeLa cells is 331 to 3300 nM; in test [1], below 100 nM; in the test with HUT78 cells it was below 330 nM; with U937 cells, below 330 nM.

For `C=CCOC(=O)[C@@H](NCc1ccc(/C=C/C(=O)NO)cc1)C1CCCCC1` [Example 25, Allyl (2S)-cyclohexyl({4-[(1E)-3-(hydroxyamino)-3-oxoprop-1-en-1-yl]benzyl}amino)acetate], the IC50 in the test with HeLa cells was 331 to 3300 nM; in test [1], below 100 nM; in the test on HUT78 cells, 331 to 3300 nM; in the test on U937 cells, below 330 nM.

On to `O=C(/C=C/c1ccc(CN[C@H](C(=O)OC2CC3CCC2C3)C2CCCCC2)cc1)NO` (stereo partly drawn) [Example 26, Bicyclo[2.2.1]hept-2-yl (2S)-cyclohexyl({4-[(1E)-3-(hydroxyamino)-3-oxoprop-1-en-1-yl]benzyl}amino)acetate], for which the IC50 with HeLa cells is 331 to 3300 nM; in test [1] it was 101 to 1000 nM; in the test with HUT78 cells, 331 to 3300 nM; in the test on U937 cells it was below 330 nM.

For the compound `CC1CCCC1OC(=O)[C@@H](NCc1ccc(/C=C/C(=O)NO)cc1)C1CCCCC1` (stereo partly drawn) [Example 27, 2-Methylcyclopentyl (2S)-cyclohexyl({4-[(1E)-3-(hydroxyamino)-3-oxoprop-1-en-1-yl]benzyl}amino)acetate], the IC50 in the test on HeLa cells was 331 to 3300 nM; in test [1], 101 to 1000 nM; in the test on HUT78 cells, 331 to 3300 nM; in the test on U937 cells it was below 330 nM.

For `CC1CCC(OC(=O)[C@@H](NCc2ccc(/C=C/C(=O)NO)cc2)C2CCCCC2)C1` (stereo partly drawn) [Example 28, 3-Methylcyclopentyl (2S)-cyclohexyl({4-[(1E)-3-(hydroxyamino)-3-oxoprop-1-en-1-yl]benzyl}amino)acetate], the IC50 in the test on HeLa cells is 331 to 3300 nM; in test [1], 101 to 1000 nM; in the test with HUT78 cells, 331 to 3300 nM; in the test with U937 cells it was below 330 nM.

With `CC(C)C[C@H](NCc1ccc(CCC(=O)NO)cc1)C(=O)OCCN1CCOCC1` [Example 35, 2-Morpholin-4-ylethyl N-{4-[3-(hydroxyamino)-3-oxopropyl]benzyl}-L-leucinate], the IC50 in the test with HeLa cells was above 3300 nM; in test [1], above 1000 nM; with HUT78 cells it was 331 to 3300 nM; with U937 cells, below 330 nM.

As for `CC(C)C[C@H](NCc1ccc(CCC(=O)NO)cc1)C(=O)OC1CC2CCC1C2` (stereo partly drawn) [Example 36, Bicyclo[2.2.1]hept-2-yl N-{4-[3-(hydroxyamino)-3-oxopropyl]benzyl}-L-leucinate], the IC50 in the test with HeLa cells is 331 to 3300 nM; in test [1] it was 101 to 1000 nM; with HUT78 cells it was below 330 nM; in the test with U937 cells, below 330 nM.

On to `CC(C)C[C@H](NCc1ccc(CCC(=O)NO)cc1)C(=O)OC1Cc2ccccc2C1` [Example 37, 2,3-Dihydro-1H-inden-2-yl N-{4-[3-(hydroxyamino)-3-oxopropyl]benzyl}-L-leucinate], for which the IC50 in the test with HeLa cells was 331 to 3300 nM; in test [1] it was 101 to 1000 nM; with HUT78 cells it was below 330 nM; with U937 cells it was below 330 nM.

In the case of `CC(C)C[C@H](NCc1ccc(CCC(=O)NO)cc1)C(=O)OCCN(C)C` [Example 38, 2-(Dimethylamino)ethyl N-{4-[3-(hydroxyamino)-3-oxopropyl]benzyl}-L-leucinate], the IC50 in the test with HeLa cells was above 3300 nM; in test [1], 101 to 1000 nM; in the test on HUT78 cells, above 3300 nM; in the test on U937 cells, 331 to 3300 nM.

On to `O=C(/C=C/c1ccc(CN[C@H](C(=O)OC2Cc3ccccc3C2)C2CCCCC2)cn1)NO` [Example 55, 2,3-Dihydro-1H-inden-2-yl (2S)-cyclohexyl[({6-[(1E)-3-(hydroxyamino)-3-oxoprop-1-en-1-yl]pyridin-3-yl}methyl)amino]acetate], for which the IC50 in the test on HeLa cells is 331 to 3300 nM; in test [1] it was below 100 nM; in the test with HUT78 cells, below 330 nM; with U937 cells it was below 330 nM.

Take `O=C(/C=C/c1ccc(CN[C@H](C(=O)OCCN2CCOCC2)C2CCCCC2)cn1)NO` [Example 56, 2-Morpholin-4-ylethyl (2S)-cyclohexyl[({6-[(1E)-3-(hydroxyamino)-3-oxoprop-1-en-1-yl]pyridin-3-yl}methyl)amino]acetate]: the IC50 in the test with HeLa cells was 331 to 3300 nM; in test [1], below 100 nM; with HUT78 cells, below 330 nM; with U937 cells, below 330 nM.

In the case of `CN(C)CCOC(=O)[C@@H](NCc1ccc(/C=C/C(=O)NO)nc1)C1CCCCC1` [Example 57, 2-(Dimethylamino)ethyl (2S)-cyclohexyl[({6-[(1E)-3-(hydroxyamino)-3-oxoprop-1-en-1-yl]pyridin-3-yl}methyl)amino]acetate], the IC50 in the test on HeLa cells is above 3300 nM; in test [1], below 100 nM; in the test with HUT78 cells, below 330 nM; in the test with U937 cells, below 330 nM.

For `O=C(/C=C/c1ccc(CN[C@H](C(=O)OC2CC3CCC2C3)C2CCCCC2)cn1)NO` (stereo partly drawn) [Example 58, Bicyclo[2.2.1]hept-2-yl (2S)-cyclohexyl[({6-[(1E)-3-(hydroxyamino)-3-oxoprop-1-en-1-yl]pyridin-3-yl}methyl)amino]acetate], the IC50 is 331 to 3300 nM with HeLa cells, below 100 nM in test [1], below 330 nM in the test on HUT78 cells and below 330 nM in the test on U937 cells.

For the compound `O=C(/C=C/c1cccc(CNCc2ccc(CN[C@H](C(=O)OC3CCCC3)C3CCCCC3)cc2)c1)NO` [Example 73, Cyclopentyl (2S)-cyclohexyl({4-[({3-[(1E)-3-(hydroxyamino)-3-oxoprop-1-en-1-yl]benzyl}amino)methyl]benzyl}amino)acetate], the IC50 with HeLa cells lay within 331 to 3300 nM; in test [1], 101 to 1000 nM; in the test with HUT78 cells, 331 to 3300 nM; in the test with U937 cells, 331 to 3300 nM.

As for `CC(C)(C)OC[C@H](NCc1ccc(CNCc2ccc(/C=C/C(=O)NO)cc2)cc1)C(=O)OC1CCCC1` [Example 75, Cyclopentyl O-tert-butyl-N-{4-[({4-[(1E)-3-(hydroxyamino)-3-oxoprop-1-en-1-yl]benzyl}amino)methyl]benzyl}-L-serinate], the IC50 is 331 to 3300 nM in the test with HeLa cells, 101 to 1000 nM in test [1], below 330 nM in the test with HUT78 cells and below 330 nM with U937 cells.

For `O=C(/C=C/c1cccc(CNCC2CCC(CN[C@H](C(=O)OC3CCCC3)C3CCCCC3)CC2)c1)NO` (stereo partly drawn) [Example 79, Cyclopentyl (2S)-cyclohexyl[({4-[({3-[(1E)-3-(hydroxyamino)-3-oxoprop-1-en-1-yl]benzyl}amino)methyl]cyclohexyl}methyl)amino]acetate], the IC50 with HeLa cells was 331 to 3300 nM; in test [1], above 1000 nM; in the test with HUT78 cells it was 331 to 3300 nM; in the test on U937 cells, 331 to 3300 nM.

For `O=C(/C=C/c1ccc(CN2CCC(N[C@H](C(=O)OC3CCCC3)C3CCCCC3)CC2)cc1)NO` [Example 80, Cyclopentyl (2S)-cyclohexyl[(1-{4-[(1E)-3-(hydroxyamino)-3-oxoprop-1-en-1-yl]benzyl}piperidin-4-yl)amino]acetate], the IC50 was 331 to 3300 nM in the test on HeLa cells, 101 to 1000 nM in test [1], below 330 nM in the test on HUT78 cells and below 330 nM with U937 cells.

In the case of `CC(C)(C)OC[C@H](NC1CCN(Cc2ccc(/C=C/C(=O)NO)cc2)CC1)C(=O)OC1CCCC1` [Example 81, Cyclopentyl O-tert-butyl-N-(1-{4-[(1E)-3-(hydroxyamino)-3-oxoprop-1-en-1-yl]benzyl}piperidin-4-yl)-L-serinate], the IC50 was 331 to 3300 nM in the test with HeLa cells, 101 to 1000 nM in test [1], below 330 nM with HUT78 cells and below 330 nM with U937 cells.

Turning to `O=C(/C=C/c1ccc(CN2CCC(CN[C@H](C(=O)OC3CCCC3)c3ccccc3)CC2)cc1)NO` [Example 82, Cyclopentyl (2S)-{[(1-{4-[(1E)-3-(hydroxyamino)-3-oxoprop-1-en-1-yl]benzyl}piperidin-4-yl)methyl]amino}(phenyl)acetate], the IC50 in the test on HeLa cells is 331 to 3300 nM; in test [1], below 100 nM; in the test with HUT78 cells it was 331 to 3300 nM; with U937 cells it was 331 to 3300 nM.

As for `O=C(/C=C/c1ccc(CN2CCC(CN[C@H](C(=O)OC3CCCC3)C3CCCCC3)CC2)cc1)NO` [Example 83, Cyclopentyl (2S)-cyclohexyl{[(1-{4-[(1E)-3-(hydroxyamino)-3-oxoprop-1-en-1-yl]benzyl}piperidin-4-yl)methyl]amino}acetate], the IC50 in the test with HeLa cells was 331 to 3300 nM; in test [1] it was 101 to 1000 nM; with HUT78 cells, below 330 nM; with U937 cells, 331 to 3300 nM.
